Experimental findings from US11945822B2, “Pyrazolo-triazine and/or pyrazolo-pxrimidine derivatives as selective inhibitor of cyclin dependent kinase” (QURIENT CO., LTD., priority 2018, dated 2024) are described below.

SMILES strings stand for the structures. Read-outs that look alike come from different tables or passages of the source.

The target of one test is T1, CDK5/p25 (Homo sapiens, UniProt Q00535).
T1 construct: purchased Invitrogen PR8543B
Put plainly: Enzymatic assay for CDK5 (FRET based LANCE Ultra kinase assay). The format is biochemical. The gist of the method:
(§1)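 TR-FRET (LANCE Ultra) kinase assay at ATP Km, ULight-MBP peptide substrate (68 nM), 8-dose 4-fold compound series in DMSO. Enzymes: […]; 60 min at 23° C., stopped with EDTA plus Eu-anti-phospho-MBP antibody, read 665/615 nm after 60 min.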

The next test deals with OVCAR-3. Put plainly: Cellular OVCAR-3 viability assay (CellTiter-Glo, 72 hours). The format is cell-based. Conditions: Homo sapiens. The source says:
Human T-cell acute lymphoblastic leukemia cell line, MOLT-4 (ATCC, Cat #CRL-1582), Human multiple myeloma cell line, RPMI-8226 (Invitrogen, Cat #22400-089) and MM.1S (ATCC, Cat #CRL-2974), NSCLC (Non-small cell lung cancer) cell line H460 (ATCC, Cat #HTB-177), Human colon colorectal carcinoma cell line HCT116 (ATCC, Cat #CCL-247), Human acute monocytic leukemia cell line MV4-11 (ATCC, Cat #CRL-9591), OVCAR-3 (ATCC, Cat #HTB-161) and A2780 (ECACC, Cat #93112519) were obtained from ATCC. Cells were grown in RPMI-1640 media (Invitrogen, Cat #22400-089) supplemented with 10% FBS (Invitrogen, Cat #10099141) and 1% penicillin/streptomycin (Invitrogen, Cat #15070063) and cultured at 37° C., 5% CO2 in a humidified chamber. All cell lines were routinely tested for mycoplasma.
The effect of the CDK7 inhibitor to inhibit the growth of target cancer cells was evaluated through the 72 hours time period of viability assay. Briefly, the candidate cell line ware plated in 96 well plate at the following density of cells respectively. 1×10^4 cells/well for MOLT-4, RPMI-8226, MV4-11 and MM.1S, 5×10^3 for H460, HCT116 and OVCAR-3 and IX 10^3 for A2780. After 24 hours, the cells were treated with various concentrations of the compound (ranging from 0.0015 uM to 10 uM). DMSO solvent without compound served as a control and final DMSO concentration less than 0.1%. After 72 hours of incubation at 37° C., 5% CO2 incubator, cells were analyzed for the viability using the CellTiter-Glo Luminescent Cell Viability Assay (Promega, Cat #G7570). All viability assays were performed in duplicate and Luminescence was read using an Envision (Perkin Elmer, USA). Data was analyzed using XLfit software.

For the next test, the target named is T2, CDK7/Cyclin H/MNAT1 (Homo sapiens, UniProt P50613).
T2 construct: purchased Invitrogen PR6749B
T2 sequence (P50613 whole entry): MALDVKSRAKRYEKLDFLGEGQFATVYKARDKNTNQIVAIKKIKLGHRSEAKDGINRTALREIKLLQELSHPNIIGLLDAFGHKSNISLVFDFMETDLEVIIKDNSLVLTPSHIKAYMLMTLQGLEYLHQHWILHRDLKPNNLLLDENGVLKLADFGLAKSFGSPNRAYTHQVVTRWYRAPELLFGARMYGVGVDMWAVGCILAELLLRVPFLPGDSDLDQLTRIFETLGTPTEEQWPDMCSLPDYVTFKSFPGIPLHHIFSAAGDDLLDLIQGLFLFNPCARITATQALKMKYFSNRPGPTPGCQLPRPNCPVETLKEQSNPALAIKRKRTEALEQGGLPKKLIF
T2 sequence (P51946 whole entry partner): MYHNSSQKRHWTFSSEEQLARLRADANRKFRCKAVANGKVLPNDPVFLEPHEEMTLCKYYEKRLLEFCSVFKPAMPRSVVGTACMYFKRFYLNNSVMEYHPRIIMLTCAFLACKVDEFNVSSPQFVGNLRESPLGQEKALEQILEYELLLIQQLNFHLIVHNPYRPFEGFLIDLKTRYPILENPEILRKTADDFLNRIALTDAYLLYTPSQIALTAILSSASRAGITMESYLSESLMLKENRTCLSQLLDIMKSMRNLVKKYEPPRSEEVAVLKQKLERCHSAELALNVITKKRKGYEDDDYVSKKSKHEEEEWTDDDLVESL
T2 sequence (P51948 whole entry partner): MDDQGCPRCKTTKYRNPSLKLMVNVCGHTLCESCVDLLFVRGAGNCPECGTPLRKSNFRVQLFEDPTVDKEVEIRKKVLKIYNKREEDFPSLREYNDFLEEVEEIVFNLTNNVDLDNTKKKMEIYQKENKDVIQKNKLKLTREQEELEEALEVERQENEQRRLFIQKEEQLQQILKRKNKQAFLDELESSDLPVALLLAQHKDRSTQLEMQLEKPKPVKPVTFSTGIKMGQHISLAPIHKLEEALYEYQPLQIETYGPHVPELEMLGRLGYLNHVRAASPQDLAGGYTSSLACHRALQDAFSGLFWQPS
Description: Enzymatic assay for CDK7 (FRET based LANCE Ultra kinase assay). In kind it is biochemical. Summed up:
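LANCE Ultra TR-FRET kinase assay using a ULight-labeled peptide substrate and a Eu-labeled anti-phospho antibody, with ATP at its Km. Purified CDK/cyclin complex was added to compound after brief centrifugation.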

In the next test the target is T3, CDK2/Cyclin A (Homo sapiens, UniProt P24941).
T3 construct: purchased Invitrogen PV6290
Put plainly: Enzymatic assay for CDK2 (FRET based LANCE Ultra kinase assay). In kind it is biochemical. The gist of the method:
as §1

The test system of the next test is A2780. Put plainly: Cellular A2780 viability assay (CellTiter-Glo, 72 hours). The format is cell-based. Particulars: Homo sapiens. Summed up: (§2)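 Cells seeded at 1×10^4/well (MM.1S), 5×10^3 (OVCAR-3) or 1×10^3 (A2780), grown in RPMI-1640 with 10% FBS. After 24 h, compound added at 0.0015–10 uM, final DMSO below 0.1%, for 72 h at 37° C. Viability read by CellTiter-Glo luminescence in duplicate, with curve fitting.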

For the next test, the target named is T4, CDK1/Cyclin B (Homo sapiens, UniProt P06493).
T4 construct: purchased Invitrogen PR4768C
T4 sequence (P06493 whole entry): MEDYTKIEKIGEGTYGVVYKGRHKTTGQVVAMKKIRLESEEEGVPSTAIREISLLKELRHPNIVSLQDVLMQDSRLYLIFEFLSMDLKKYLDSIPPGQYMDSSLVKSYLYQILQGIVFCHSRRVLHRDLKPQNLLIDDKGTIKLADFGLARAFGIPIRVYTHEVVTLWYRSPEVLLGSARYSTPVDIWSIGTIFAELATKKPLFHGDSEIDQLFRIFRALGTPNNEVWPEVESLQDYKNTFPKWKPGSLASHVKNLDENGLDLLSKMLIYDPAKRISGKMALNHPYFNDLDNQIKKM
T4 sequence (P14635 whole entry partner): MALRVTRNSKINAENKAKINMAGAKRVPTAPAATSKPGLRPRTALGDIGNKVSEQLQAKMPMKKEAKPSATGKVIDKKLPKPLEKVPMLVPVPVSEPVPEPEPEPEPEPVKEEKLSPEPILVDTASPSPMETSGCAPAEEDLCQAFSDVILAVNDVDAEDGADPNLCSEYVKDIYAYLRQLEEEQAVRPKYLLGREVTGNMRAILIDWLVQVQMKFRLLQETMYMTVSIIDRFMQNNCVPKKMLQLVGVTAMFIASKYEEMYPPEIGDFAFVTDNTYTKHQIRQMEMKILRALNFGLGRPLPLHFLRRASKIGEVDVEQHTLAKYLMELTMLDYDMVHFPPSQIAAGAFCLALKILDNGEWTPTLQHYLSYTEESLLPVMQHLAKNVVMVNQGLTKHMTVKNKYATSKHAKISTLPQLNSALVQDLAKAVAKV
Description: Enzymatic assay for CDK1 (FRET based LANCE Ultra kinase assay). In kind it is biochemical. The gist of the method:
as §1

Another test concerns H460. Description: Cellular H460 viability assay (CellTiter-Glo, 72 hours). Particulars: Homo sapiens, NCI-H460. The format is cell-based. The gist of the method:
(§3)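 Cells plated in 96 wells and exposed to compound 72 h at 37 °C, 5% CO2, final DMSO below 0.1%, DMSO control. Viability by CellTiter-Glo luminescence, duplicate.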

In the next test the test system is HCT116. Description: Cellular HCT116 viability assay (CellTiter-Glo, 72 hours). The format is cell-based. Particulars: Homo sapiens, HCT-116. The gist of the method: as §3
In another test the test system is MV4-11. Put plainly: Cellular MV4-11 viability assay (CellTiter-Glo, 72 hours). In kind it is cell-based. Particulars: Homo sapiens. The gist of the method:
as §3

For another test, the system named is RPMI-8226. Description: Cellular RPMI-8226 viability assay (CellTiter-Glo, 72 hours). The format is cell-based. Conditions: Homo sapiens. The gist of the method:
as §3

The subject of another test is MM.1S. Put plainly: Cellular MM.1S viability assay (CellTiter-Glo, 72 hours). The format is cell-based. Conditions: Homo sapiens, MM1.S. The gist of the method: as §2
A further test concerns MOLT-4. Put plainly: Cellular MOLT-4 viability assay (CellTiter-Glo, 72 hours). In kind it is cell-based. Conditions: Homo sapiens, MOLT4 viability assay. The gist of the method: as §3
The mark [1] stands for this setting: read-out: CDK5 enzymatic activity (IC50 activity range).
[2] abbreviates: read-out: CDK7 enzymatic activity (IC50 activity range).
Setting [3] is: read-out: CDK2 enzymatic activity (IC50 activity range).
Setting [4] is: read-out: CDK1 enzymatic activity (IC50 activity range).
Where [5] appears, read: read-out: CDK5 enzymatic activity (IC50 range).
The mark [6] stands for this setting: read-out: CDK7 enzymatic activity (IC50 range).
The mark [7] stands for this setting: read-out: CDK2 enzymatic activity (IC50 range).
The mark [8] stands for this setting: read-out: CDK1 enzymatic activity (IC50 range).

T1 sequence (Q00535 whole entry): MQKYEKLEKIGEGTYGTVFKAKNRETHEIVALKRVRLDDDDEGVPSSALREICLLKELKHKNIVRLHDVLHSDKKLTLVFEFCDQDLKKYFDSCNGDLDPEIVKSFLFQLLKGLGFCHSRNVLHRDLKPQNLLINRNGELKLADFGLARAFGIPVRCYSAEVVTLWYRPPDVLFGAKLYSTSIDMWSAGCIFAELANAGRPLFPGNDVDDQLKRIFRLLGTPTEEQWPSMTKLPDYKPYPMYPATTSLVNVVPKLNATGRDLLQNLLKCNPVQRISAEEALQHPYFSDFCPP
T1 sequence (Q15078 99-307 partner limits assumed): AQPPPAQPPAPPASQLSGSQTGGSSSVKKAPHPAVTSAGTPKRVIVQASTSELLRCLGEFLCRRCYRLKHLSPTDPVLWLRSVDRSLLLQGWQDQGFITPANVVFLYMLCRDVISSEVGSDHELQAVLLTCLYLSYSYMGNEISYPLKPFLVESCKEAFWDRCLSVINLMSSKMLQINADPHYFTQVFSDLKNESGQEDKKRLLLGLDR

Take `CC(C)c1cnn2c(NCc3ccccc3-c3nccc4ccccc34)nc(NC[C@H]3CCNC[C@@H]3O)nc12` [Compound 279]: the IC50 was > 1 µM at CDK5/p25 (setting [1]); 1 to 10 µM with OVCAR-3; 0.1 to 1 µM at CDK7/Cyclin H/MNAT1 (setting [2]); > 1 µM on CDK2/Cyclin A (setting [3]); ≤ 1 µM with A2780; > 1 µM on CDK1/Cyclin B (setting [4]). The “CDK1/CDK7: Selectivity of CDK7 inhibition over CDK1 inhibition” value at CDK7/Cyclin H/MNAT1 (CDK1/CDK7) is reported as “B (B=less than 200 fold, but greater than 20 fold)”. Moreover, the “CDK2/CDK7: Selectivity of CDK7 inhibition over CDK2 inhibition” value on CDK7/Cyclin H/MNAT1 (CDK2/CDK7) was “B (B=less than 200 fold, but greater than 20 fold)”. The “CDK5/CDK7: Selectivity of CDK7 inhibition over CDK5 inhibition” value at CDK7/Cyclin H/MNAT1 (CDK5/CDK7) is reported as “B (B=less than 200 fold, but greater than 20 fold)”.

As to `CC(C)c1cnn2c(NCc3ccccc3-c3cc4ccccc4[nH]3)nc(N3CCC(N)CC3)nc12` [Compound 102], the IC50 is < 0.1 µM on CDK5/p25 (setting [5]); < 1 µM in the test with H460; < 1 µM in the test with HCT116; < 1 µM with MV4-11; < 0.1 µM at CDK7/Cyclin H/MNAT1 (setting [6]); < 1 µM in the test on RPMI-8226. Besides, the IC50 on CDK2/Cyclin A (setting [7]) was 0.1 to 1 µM; in the test with A2780, ≤ 1 µM; at CDK1/Cyclin B (setting [8]), 0.1 to 1 µM; with MM.1S, ≤ 1 µM. Moreover, on CDK7/Cyclin H/MNAT1 (CDK7 over CDK1), the “CDK1/CDK7: Selectivity of CDK7 inhibition over CDK1 inhibition” value is listed as “B (B=less than 200 fold, but greater than 20 fold)”. For the same compound, the “CDK2/CDK7: Selectivity of CDK7 inhibition over CDK2 inhibition” value at CDK7/Cyclin H/MNAT1 (CDK7 over CDK2) is given as “B (B=less than 200 fold, but greater than 20 fold)”. The “CDK5/CDK7: Selectivity of CDK7 inhibition over CDK5 inhibition” value on CDK7/Cyclin H/MNAT1 (CDK7 over CDK5) is on record as “C (C=less than 20 fold)”.

Turning to `CC(C)c1cnn2c(NCc3c(Cl)cccc3-n3ccc(C(C)(C)O)n3)nc(Nc3cc[nH]c3)nc12` [Compound 277], the IC50 at CDK5/p25 (setting [1]) is > 1 µM; in the test with OVCAR-3, > 10 µM; on CDK7/Cyclin H/MNAT1 (setting [2]) it was > 1 µM; at CDK2/Cyclin A (setting [3]), > 1 µM; with A2780 it was > 10 µM; on CDK1/Cyclin B (setting [4]) it was > 1 µM. Moreover, on CDK7/Cyclin H/MNAT1 (CDK1/CDK7), the “CDK1/CDK7: Selectivity of CDK7 inhibition over CDK1 inhibition” value is reported as “C (C=less than 20 fold)”. For the same compound, the “CDK2/CDK7: Selectivity of CDK7 inhibition over CDK2 inhibition” value on CDK7/Cyclin H/MNAT1 (CDK2/CDK7) is recorded as “C (C=less than 20 fold)”. Besides, on CDK7/Cyclin H/MNAT1 (CDK5/CDK7), the “CDK5/CDK7: Selectivity of CDK7 inhibition over CDK5 inhibition” value is given as “C (C=less than 20 fold)”.

Take `CC(C)c1cnn2c(NCc3ccccc3OC3CCN(C)CC3)nc(N3CCC(N)CC3)nc12` [Compound 66]: the IC50 was 0.1 to 1 µM at CDK5/p25 (setting [5]); < 1 µM with H460; < 1 µM with HCT116; < 1 µM in the test on MV4-11; < 0.1 µM on CDK7/Cyclin H/MNAT1 (setting [6]); 1 to 10 µM with RPMI-8226. The IC50 is > 1 µM on CDK2/Cyclin A (setting [7]), 1 to 10 µM in the test on MOLT-4, > 1 µM at CDK1/Cyclin B (setting [8]) and ≤ 1 µM in the test with MM.1S. Besides, the “CDK1/CDK7: Selectivity of CDK7 inhibition over CDK1 inhibition” value on CDK7/Cyclin H/MNAT1 (CDK7 over CDK1) is recorded as “A (A=greater than 200 fold)”. Besides, the “CDK2/CDK7: Selectivity of CDK7 inhibition over CDK2 inhibition” value at CDK7/Cyclin H/MNAT1 (CDK7 over CDK2) is on record as “A (A=greater than 200 fold)”. The “CDK5/CDK7: Selectivity of CDK7 inhibition over CDK5 inhibition” value on CDK7/Cyclin H/MNAT1 (CDK7 over CDK5) is recorded as “A (A=greater than 200 fold)”.

On to `CC(C)c1cnn2c(NCc3ccccc3-n3cc4ccc(C(F)(F)F)cc4n3)nc(N3CCC(N)CC3)nc12` [Compound 104], for which the IC50 on CDK5/p25 (setting [5]) is 0.1 to 1 µM; with H460 it was < 1 µM; in the test with HCT116, < 1 µM; in the test on MV4-11, < 1 µM; at CDK7/Cyclin H/MNAT1 (setting [6]), < 0.1 µM; in the test on RPMI-8226, < 1 µM. The half-maximal inhibitory concentration (IC50) at CDK2/Cyclin A (setting [7]) was > 1 µM; with MOLT-4 it was 1 to 10 µM; on CDK1/Cyclin B (setting [8]), > 1 µM; in the test with MM.1S, ≤ 1 µM. In addition, the “CDK1/CDK7: Selectivity of CDK7 inhibition over CDK1 inhibition” value at CDK7/Cyclin H/MNAT1 (CDK7 over CDK1) was “A (A=greater than 200 fold)”. Moreover, at CDK7/Cyclin H/MNAT1 (CDK7 over CDK2), the “CDK2/CDK7: Selectivity of CDK7 inhibition over CDK2 inhibition” value was “A (A=greater than 200 fold)”. Besides, at CDK7/Cyclin H/MNAT1 (CDK7 over CDK5), the “CDK5/CDK7: Selectivity of CDK7 inhibition over CDK5 inhibition” value is listed as “B (B=less than 200 fold, but greater than 20 fold)”.
